System: 994946-033-R-J1-PDC complex spheroid viability
Test: Anticancer human tumor 994946-033-R-J1-PDC patient-derived melanoma cell line growth inhibition [POLQ]
Details: for IC50: curve of first compound; for viability, T/C: stronger effect = lower value
Procedure, shortened: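 Three-cell-type spheroids modelling solid tumor plus stroma served as the readout system; POL inhibitors were tested individually and in combination, concentration ranges set by clinical Cmax where known.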

[1] = second compound 0.0316 µM, first compound 0.0316 µM
[2] = second compound 0.0316 µM, first compound 0.1 µM
[3] = second compound 0.0316 µM, first compound 0.316 µM
[4] = second compound 0.0316 µM, first compound 1 µM
[5] = second compound 0.0316 µM, first compound 3.16 µM
[6] = second compound 0.0316 µM, first compound 10 µM
[7] = second compound 0.1 µM, first compound 0.0316 µM
[8] = second compound 0.1 µM, first compound 0.1 µM
[9] = second compound 0.1 µM, first compound 0.316 µM
[10] = second compound 0.1 µM, first compound 1 µM
[11] = second compound 0.1 µM, first compound 3.16 µM
[12] = second compound 0.1 µM, first compound 10 µM
[13] = second compound 0.316 µM, first compound 0.0316 µM
[14] = second compound 0.316 µM, first compound 0.1 µM
[15] = second compound 0.316 µM, first compound 0.316 µM
[16] = second compound 0.316 µM, first compound 1 µM
[17] = second compound 0.316 µM, first compound 3.16 µM
[18] = second compound 0.316 µM, first compound 10 µM
[19] = second compound 1 µM, first compound 0.0316 µM
[20] = second compound 1 µM, first compound 0.1 µM
[21] = second compound 1 µM, first compound 0.316 µM
[22] = second compound 1 µM, first compound 1 µM
[23] = second compound 1 µM, first compound 3.16 µM
[24] = second compound 1 µM, first compound 10 µM
[25] = second compound 3.16 µM, first compound 0.0316 µM
[26] = second compound 3.16 µM, first compound 0.1 µM
[27] = second compound 3.16 µM, first compound 0.316 µM
[28] = second compound 3.16 µM, first compound 1 µM
[29] = second compound 3.16 µM, first compound 3.16 µM
[30] = second compound 3.16 µM, first compound 10 µM
[31] = second compound 10 µM, first compound 0.0316 µM
[32] = second compound 10 µM, first compound 0.1 µM
[33] = second compound 10 µM, first compound 0.316 µM
[34] = second compound 10 µM, first compound 1 µM
[35] = second compound 10 µM, first compound 3.16 µM
[36] = second compound 10 µM, first compound 10 µM
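Also: spheroids exposed to drugs for 7 days.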
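For viability, T/C in this document: 100% = DMSO vehicle treated spheroids.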

O=c1[nH]cc(F)c(=O)[nH]1 + COC1C(OC(N)=O)C(O)C(Oc2ccc3c(O)c(NC(=O)c4ccc(O)c(CC=C(C)C)c4)c(=O)oc3c2C)OC1(C)C showed an IC50 (second compound 0.0316 µM) greater than 10 µM, an IC50 (second compound 0.1 µM) of 8.3 µM and an IC50 (second compound 0.316 µM) of 7.08 µM. The IC50 (second compound 1 µM) was greater than 10 µM, the IC50 (second compound 3.16 µM) was 8.98 µM and the IC50 (second compound 10 µM) was greater than 10 µM. For the same molecule, the viability, T/C [1] was 86%, the viability, T/C [2] was 130% and the viability, T/C [3] was 113%. It also gave a viability, T/C [4] of 76%, a viability, T/C [5] of 60.7% and a viability, T/C [6] of 53.7%. The viability, T/C [7] was 91.2%, the viability, T/C [8] was 93.2% and the viability, T/C [9] was 102%. It also gave a viability, T/C [10] of 82%, a viability, T/C [11] of 61.7% and a viability, T/C [12] of 47.4%. It also gave a viability, T/C [13] of 133%, a viability, T/C [14] of 99.6% and a viability, T/C [15] of 100%. For the same molecule, the viability, T/C [16] was 71%, the viability, T/C [17] was 45.3% and the viability, T/C [18] was 53.5%. The viability, T/C [19] was 87.6%, the viability, T/C [20] was 102% and the viability, T/C [21] was 91.8%. It also gave a viability, T/C [22] of 57%, a viability, T/C [23] of 53.7% and a viability, T/C [24] of 53.9%. For the same molecule, the viability, T/C [25] was 124%, the viability, T/C [26] was 113% and the viability, T/C [27] was 83.7%. The viability, T/C [28] was 65.9%, the viability, T/C [29] was 60.6% and the viability, T/C [30] was 50.4%. It also gave a viability, T/C [31] of 108%, a viability, T/C [32] of 114% and a viability, T/C [33] of 90.5%. The viability, T/C [34] was 81.1%, the viability, T/C [35] was 58.6% and the viability, T/C [36] was 61.5%.

With CC1COCCN1c1cc(-c2ccnn2C)c2ccnc(-c3ccn[nH]3)c2n1 (stereo unspecified) + Cc1cccc(N(C)C(=O)C2C(O)CCN2c2nc(C)cc(C(F)(F)F)c2C#N)c1 the IC50 (second compound 0.0316 µM) was 0.0603 µM, the IC50 (second compound 0.1 µM) was 0.0536 µM and the IC50 (second compound 0.316 µM) was 0.0512 µM. It also gave an IC50 (second compound 1 µM) of 0.057 µM, an IC50 (second compound 3.16 µM) of less than 0.0316 µM and an IC50 (second compound 10 µM) of 0.0882 µM. It also gave a viability, T/C [1] of 77.7%, a viability, T/C [2] of 27.9% and a viability, T/C [3] of 13%. It also gave a viability, T/C [4] of 24.4%, a viability, T/C [5] of 16.6% and a viability, T/C [6] of 8.57%. It also gave a viability, T/C [7] of 69.1%, a viability, T/C [8] of 28.4% and a viability, T/C [9] of 14.2%. It also gave a viability, T/C [10] of 31.3%, a viability, T/C [11] of 15.1% and a viability, T/C [12] of 7.78%. The viability, T/C [13] was 72.5%, the viability, T/C [14] was 18.6% and the viability, T/C [15] was 25.1%. The viability, T/C [16] was 12.4%, the viability, T/C [17] was 15.7% and the viability, T/C [18] was 7.71%. For the same molecule, the viability, T/C [19] was 63.4%, the viability, T/C [20] was 33.9% and the viability, T/C [21] was 29.9%. For the same molecule, the viability, T/C [22] was 16%, the viability, T/C [23] was 13.6% and the viability, T/C [24] was 7.27%. It also gave a viability, T/C [25] of 49%, a viability, T/C [26] of 35.3% and a viability, T/C [27] of 18.5%. For the same molecule, the viability, T/C [28] was 12.7%, the viability, T/C [29] was 11% and the viability, T/C [30] was 6.95%. It also gave a viability, T/C [31] of 81.8%, a viability, T/C [32] of 42% and a viability, T/C [33] of 30.7%. For the same molecule, the viability, T/C [34] was 21.6%, the viability, T/C [35] was 15.3% and the viability, T/C [36] was 8.65%.

In the case of Nc1ccn(C2OC(CO)C(O)C2(F)F)c(=O)n1 (stereo unspecified) + Cc1cccc(N(C)C(=O)C2C(O)CCN2c2nc(C)cc(C(F)(F)F)c2C#N)c1, the IC50 (second compound 0.0316 µM) is reported as less than 0.0316 µM, the IC50 (second compound 0.1 µM) is reported as less than 0.0316 µM and the IC50 (second compound 0.316 µM) is reported as less than 0.0316 µM. It also gave an IC50 (second compound 1 µM) of less than 0.0316 µM, an IC50 (second compound 3.16 µM) of less than 0.0316 µM and an IC50 (second compound 10 µM) of less than 0.0316 µM. The viability, T/C [1] was 26.7%, the viability, T/C [2] was 6.28% and the viability, T/C [3] was 4.88%. For the same molecule, the viability, T/C [4] was 6.63%, the viability, T/C [5] was 3.54% and the viability, T/C [6] was 2.78%. For the same molecule, the viability, T/C [7] was 49.3%, the viability, T/C [8] was 5.24% and the viability, T/C [9] was 5.13%. It also gave a viability, T/C [10] of 4.71%, a viability, T/C [11] of 4.54% and a viability, T/C [12] of 2.88%. The viability, T/C [13] was 24.7%, the viability, T/C [14] was 5.51% and the viability, T/C [15] was 5.07%. It also gave a viability, T/C [16] of 4.92%, a viability, T/C [17] of 4.06% and a viability, T/C [18] of 1.82%. It also gave a viability, T/C [19] of 23.1%, a viability, T/C [20] of 7.5% and a viability, T/C [21] of 4.98%. The viability, T/C [22] was 4.8%, the viability, T/C [23] was 4.33% and the viability, T/C [24] was 2.48%. The viability, T/C [25] was 39.7%, the viability, T/C [26] was 6.77% and the viability, T/C [27] was 4.52%. It also gave a viability, T/C [28] of 5.28%, a viability, T/C [29] of 4.61% and a viability, T/C [30] of 2.97%. For the same molecule, the viability, T/C [31] was 48.6%, the viability, T/C [32] was 13.3% and the viability, T/C [33] was 6.55%. The viability, T/C [34] was 5.55%, the viability, T/C [35] was 5.13% and the viability, T/C [36] was 1.86%.
